# From US7326703B2, “(1,10B-Dihydro-2-(aminocarbonyl-phenyl)-5H-pyrazolo[1,5-c][1,3]benzoxazin-5-yl)phenyl methanone derivatives as HIV viral replication inhibitors” (priority 2004, dated 2008)
# Columns and labels:
# HIV-1-MDR = experiment: Cellular anti-viral assay in MT4-LTR-EGFP cells, multi-drug resistant HIV-1 virus; format: cell-based; settings: Human immunodeficiency virus 1, 72 h, read-out: Activity class for HIV-1-MDR test
# Method: (§1) The compounds were tested in a cellular assay using the MT4-LTR-EGFP cells for anti-viral activity. […] The cellular assay was performed according to the following procedure.
# (§2) HIV- or mock-infected MT4-LTR-EGFP cells were incubated for three days in the presence of various concentrations of the inhibitor. Upon infection, the GFP reporter is activated by the viral tat protein. At the end of the incubation period, the GFP signal was measured. In the virus control samples (in the absence of any inhibitor) the maximal fluorescent signal was obtained. The inhibitory activity of the compound was monitored on the virus-infected cells and was expressed as EC50 and EC90. These values represent the amount of the compound required to protect 50% and 90%, respectively, of the cells from virus infection. The toxicity of the compound was measured on the mock-infected cells and was expressed as CC50, which represents the concentration of compound required to inhibit the growth of the cells by 50%. The selectivity index (SI) (ratio CC50/EC50) is an indication of the selectivity of the anti-HIV activity of the inhibitor.
# HIV-1 strain LAI = experiment: Cellular anti-viral assay in MT4-LTR-EGFP cells, wild type HIV-1 strain LAI; format: cell-based; settings: Human immunodeficiency virus 1, 72 h; MT4-LTR-EGFP cells, three days incubation, GFP signal; average EC50 used where more than one run; read-out: Activity class for HIV-1-LAI test
# Method: as §1, §2
structure (smiles),measurement,setting,value
O=C(NC1CCCC1)c1ccc(C2=NN3C(C(=O)c4cccc(Br)c4)Oc4ccccc4C3C2)cc1 (centres unmarked) [Compound 58],EC50,HIV-1-MDR,< 1 µM
same,EC50,HIV-1 strain LAI,< 1 µM
